Measurements: the supplement of paper PMC10307832

Columns and labels:
Assay in all cases: relative viability (nuclei count vs DMSO), 5 days (fraction); higher = more cells survive
[1] = compound: CCOc1cc2ncc(C#N)c(Nc3ccc(OCc4ccccn4)c(Cl)c3)c2cc1NC(=O)/C=C/CN(C)C [Neratinib] + CCNC(=O)c1noc(-c2cc(C(C)C)c(O)cc2O)c1-c1ccc(CN2CCOCC2)cc1 [Luminespib] (partner 0.01 µM)
Procedure, shortened: (§1)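 The day after seeding in 1536-well plates, lung cancer cell lines were treated by pin tool with a single drug, or with a fixed anchor-drug dose together with five library-drug doses (not always all listed) in √10 steps. After 5 days, a combined fix-and-stain solution (final 0.05% Triton X-100, 1% formaldehyde, 1 ug/ml Hoechst) was added. Nuclei counted on 4× images gave relative viability as treated counts over vehicle counts, reported as the median of duplicate plates.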

[2] = compound: CCOc1cc2ncc(C#N)c(Nc3ccc(OCc4ccccn4)c(Cl)c3)c2cc1NC(=O)/C=C/CN(C)C [Neratinib] + CC(C)C[C@H](NC(=O)[C@H](Cc1ccccc1)NC(=O)c1cnccn1)B(O)O [Bortezomib] (partner 0.002 µM)
Procedure, shortened: as §1

[3] = compound: CCOc1cc2ncc(C#N)c(Nc3ccc(OCc4ccccn4)c(Cl)c3)c2cc1NC(=O)/C=C/CN(C)C [Neratinib] + CC1(C)CCC(c2ccc(Cl)cc2)=C(CN2CCN(c3ccc(C(=O)NS(=O)(=O)c4ccc(N[C@H](CCN5CCOCC5)CSc5ccccc5)c(S(=O)(=O)C(F)(F)F)c4)cc3)CC2)C1 [Navitoclax] (partner 0.5 µM)
Procedure, shortened: as §1

[4] = compound: CCOc1cc2ncc(C#N)c(Nc3ccc(OCc4ccccn4)c(Cl)c3)c2cc1NC(=O)/C=C/CN(C)C [Neratinib] + Cc1nc(Nc2ncc(C(=O)Nc3c(C)cccc3Cl)s2)cc(N2CCN(CCO)CC2)n1 [Dasatinib] (partner 0.075 µM)
Procedure, shortened: as §1

Row | Cell Line | relative viability ([1]; first compound 0.01 µM) | relative viability ([1]; first compound 0.03162 µM) | relative viability ([1]; first compound 0.1 µM) | relative viability ([1]; first compound 0.3162 µM) | relative viability ([1]; first compound 1 µM) | relative viability ([2]; first compound 0.01 µM) | relative viability ([2]; first compound 0.03162 µM) | relative viability ([2]; first compound 0.3162 µM) | relative viability ([2]; first compound 1 µM) | relative viability ([3]; first compound 0.01 µM) | relative viability ([3]; first compound 0.3162 µM) | relative viability ([3]; first compound 1 µM) | relative viability ([4]; first compound 0.01 µM) | relative viability ([4]; first compound 0.03162 µM) | relative viability ([4]; first compound 0.1 µM) | relative viability ([4]; first compound 0.3162 µM) | relative viability ([4]; first compound 1 µM) | relative viability ([2]; first compound 0.1 µM) | relative viability ([3]; first compound 0.03162 µM) | relative viability ([3]; first compound 0.1 µM)
1 | NCI-H1755 | 0.544 | 0.488 | 0.444 | 0.419 | 0.488 | 1.08 | 0.934 | 1.04 | 0.958 | 1.06 | 1.02 | 0.469 | 0.478 | 0.466 | 0.379 | 0.436 | 0.319 | – | – | –
2 | NCI-H1792 | 0.458 | 0.466 | 0.365 | 0.358 | 0.381 | 1.01 | 0.965 | 0.896 | 0.745 | 0.622 | – | 0.591 | 0.769 | 0.905 | 0.738 | 0.684 | 0.368 | 0.897 | 0.833 | 0.612
3 | NCI-H1915 | 0.845 | 0.818 | 0.422 | 0.792 | 0.462 | 1.06 | 1.03 | 0.874 | 0.962 | 0.764 | 0.736 | 0.744 | 0.384 | 0.339 | 0.218 | 0.332 | 0.287 | 0.952 | 0.862 | 0.757
4 | NCI-H1975 | 0.289 | 0.174 | 0.311 | 0.123 | 0.186 | 0.36 | 0.428 | 0.252 | 0.191 | 1.26 | 0.394 | 0.238 | 0.443 | 0.505 | 0.313 | 0.124 | 0.146 | 0.423 | 1.33 | 0.788
5 | NCI-H1993 | 0.717 | 0.83 | 0.719 | 0.599 | 0.511 | – | 1.11 | 0.646 | – | 0.911 | 0.651 | 0.574 | 0.638 | 0.607 | 0.558 | 0.589 | 0.575 | 0.763 | 0.986 | 0.815
6 | NCI-H2009 | 0.998 | 1.01 | 0.828 | 1.01 | 0.962 | 0.998 | 1.08 | 0.825 | – | 1.13 | 1.13 | 0.999 | 0.3 | 0.347 | 0.301 | 0.292 | 0.206 | 0.856 | 1.23 | 1.12
7 | NCI-H2023 | 0.999 | 0.871 | 0.579 | 0.709 | 0.579 | 1.08 | 1.08 | 0.995 | 0.69 | 0.987 | 0.943 | 0.699 | 0.576 | 0.562 | 0.473 | 0.479 | 0.42 | 0.802 | 1.04 | 0.909
8 | NCI-H2085 | 0.4 | 0.455 | 0.353 | 0.3 | 0.294 | 1.05 | – | 1.06 | 0.76 | 1.18 | 0.88 | 0.804 | 0.261 | 0.264 | 0.254 | 0.21 | 0.234 | 0.869 | 1.14 | –
9 | NCI-H2087 | 0.16 | 0.172 | 0.151 | 0.14 | 0.148 | 0.775 | 0.867 | 0.782 | 0.857 | 1.04 | 1 | 0.444 | 0.936 | 0.888 | 0.605 | 0.584 | 0.373 | – | 0.896 | –
10 | NCI-H2126 | 0.932 | 0.853 | 0.828 | 0.822 | 0.464 | 1.2 | 1.13 | 1.07 | 0.821 | 0.861 | 0.748 | 0.35 | 0.589 | 0.602 | 0.523 | 0.426 | 0.338 | 1.05 | 0.831 | 0.682
11 | NCI-H2228 | 0.145 | 0.138 | 0.14 | 0.12 | 0.114 | 1.16 | 1.03 | 0.765 | 0.295 | 0.929 | 0.953 | 0.258 | 0.494 | 0.566 | 0.366 | 0.45 | 0.102 | 1.01 | 1.57 | 0.802
12 | NCI-H2347 | 0.472 | 0.385 | – | 0.483 | 0.289 | 1.01 | 1.12 | 0.721 | 1.11 | 0.819 | 0.786 | 0.698 | 0.282 | 0.35 | – | 0.375 | 0.2 | 0.808 | 0.945 | 0.68
13 | NCI-H2405 | 0.859 | 0.73 | 0.562 | 0.577 | 0.354 | 1.05 | 1.09 | 0.998 | 0.954 | 0.904 | 0.785 | 0.188 | 0.225 | 0.23 | 0.218 | 0.212 | 0.199 | 0.708 | 0.887 | 0.784
14 | NCI-H3122 | 0.103 | 0.0884 | 0.119 | 0.102 | 0.11 | 1.05 | 1.1 | 1.06 | 0.775 | 1.05 | 1.03 | 0.407 | 0.872 | 0.939 | 0.729 | 0.565 | 0.132 | 0.98 | 1.02 | 1.05
15 | PC-3 [JPC-3] | 0.702 | 0.733 | 0.648 | 0.496 | 0.326 | 0.834 | 0.844 | 0.802 | 0.365 | 0.731 | 0.624 | 0.333 | 1.11 | 1.1 | 0.885 | 0.757 | 0.286 | 0.82 | 0.826 | 0.784
16 | PC-14 | 0.176 | 0.129 | 0.156 | 0.116 | 0.129 | 0.88 | 0.86 | 0.918 | 0.158 | 0.988 | 0.936 | 0.24 | 0.22 | 0.265 | 0.195 | 0.0282 | 0.0541 | 0.741 | 1.01 | 0.928
